Experimental findings from patent publication US20070185116A1, “Bicyclic compounds” (TANABE SEIYAKU CO., LTD., priority 2004, published 2007) are described below.

SMILES strings stand for the structures.

The test system of experiment [1] is isolated rabbit urinary bladder. Description: Relaxation effect on potassium-induced contraction of isolated rabbit urinary bladder. The format is cell-based. The settings on record: Oryctolagus cuniculus; strips pre-contracted with high-K+ (30 mM) Krebs solution; relaxation as percentage of maximum relaxation by 10^-4 M papaverine; read-out: IC50 value (50% relaxation concentration). As to the method: [Relaxation Effect on Potassium-Induced Contraction of Isolated Rabbit Urinary Bladder]
Urinary bladder was isolated from Male NZW rabbits (body weight: 2.0-3.5 kg) and immersed in ice-cold Krebs-bicarbonate solution (in mM: 118 NaCl, 4.7 KCl, 2.55 CaCl2, 1.18 MgSO4, 1.18 KH2PO4, 24.88 NaHCO3 and 11.1 glucose). The urinary bladder was cut into longitudinal strips (5 mm length, 3-4 mm width) after mucosal layer was removed.
Preparations were mounted in organ baths containing 10 ml of Krebs solution maintained at 37° C. and gassed with 95% O2/5% CO2. Accordingly, preparations were stretched with an initial tension of 2.0±1.0 g, and changes in isometric tension were measured by force-displacement transducer. The preparations were pre-contracted by changing organ-bath solution into high-K^+ (30 mM) Krebs solution (in mM: 118 NaCl, […], 2.55 CaCl2, 1.18 MgSO4, 1.18 KH2PO4, 24.88 NaHCO3 and 11.1 glucose).
After stable tension was obtained, compounds were added into organ baths cumulatively (10^−8 M-10^−4 M). The effects of compounds were expressed as a percentage of the maximum relaxation produced by 10^−4 M papaverine as 100%. 50% relaxation concentration (IC50) was calculated and IC50 value range (μM) of compounds of the present invention was shown in the following Table 1 with a rank of A, B or C.
These ranges are as mentioned below.

The test system of experiment [2] is rhythmic bladder contractions induced by substance P. The experiment in a line: Inhibitory effect on the rhythmic bladder contractions induced by substance P in anesthetized rats. To be noted: 0.25 mg/kg, intravenous administration; urethane-anesthetized female Sprague-Dawley rats; observed for 35 minutes. The format is in vivo, rat.

As to `Cc1ccccc1-c1ncc(Cl)cc1-c1ccc(C(N)=O)cc1` [Example 43], in experiment [1], the IC50 is 500 to 1000 nM. In addition, the “100% inhibition time: Time (min) during which the frequency of the rhythmic contraction had been completely inhibited” value in experiment [2] is recorded as more than 35 min.

As for `Cc1ccc(-c2ncc(Cl)cc2-c2ccc(C(N)=O)cc2)cn1` [Example 1], the IC50 in experiment [1] lay in the range of 500 to 1000 nM. For the same compound, in experiment [2], the “100% inhibition time: Time (min) during which the frequency of the rhythmic contraction had been completely inhibited” value stood at 20.5 min.
